Results taken from patent publication US9718828B2 (MERCK SHARP & DOHME CORP., priority 2011, dated 2017).
Counter-ions that a name gives are not always drawn.

target: hBTK (full-length BTK, 6HIS-tag cleaved) (Homo sapiens (Human), UniProt Q06187); test: BTK enzymatic activity, LANCE TR-FRET assay (Assay Method C); type: biochemical; settings: LANCE TR-FRET, 50 pM hBTK, 25 μM ATP; class 100-1000 is given as ≧100 nM-<1 μM; read-out: IC50 Btk activity values - Assay Method C
Sequence (Q06187 whole entry): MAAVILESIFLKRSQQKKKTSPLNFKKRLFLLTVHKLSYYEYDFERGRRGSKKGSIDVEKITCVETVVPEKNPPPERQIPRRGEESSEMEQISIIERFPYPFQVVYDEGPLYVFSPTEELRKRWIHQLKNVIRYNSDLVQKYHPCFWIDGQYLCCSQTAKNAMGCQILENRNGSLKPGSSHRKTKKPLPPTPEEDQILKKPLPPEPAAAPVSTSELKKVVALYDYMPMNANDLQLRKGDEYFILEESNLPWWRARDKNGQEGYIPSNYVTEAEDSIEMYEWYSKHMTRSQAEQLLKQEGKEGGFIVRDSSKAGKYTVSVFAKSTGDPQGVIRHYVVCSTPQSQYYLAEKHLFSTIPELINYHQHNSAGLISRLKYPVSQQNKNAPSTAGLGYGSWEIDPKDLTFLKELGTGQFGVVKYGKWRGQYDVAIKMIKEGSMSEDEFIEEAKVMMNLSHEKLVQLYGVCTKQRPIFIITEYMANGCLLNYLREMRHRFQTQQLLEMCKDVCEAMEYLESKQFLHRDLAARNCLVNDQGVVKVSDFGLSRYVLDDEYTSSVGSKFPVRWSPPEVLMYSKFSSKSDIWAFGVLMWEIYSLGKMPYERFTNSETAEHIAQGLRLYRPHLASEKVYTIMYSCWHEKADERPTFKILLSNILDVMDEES

Row | SMILES | IC50
1 | C[C@@H](O)C(=O)N1CCO[C@@H](c2nc(-c3ccc(C(=O)Nc4cc(C(F)(F)F)ccn4)cc3)c3c(N)nccn23)C1 [Example 520, 4-(8-amino-3-{(2R)-4-[(2R)-2-hydroxypropanoyl]morpholin-2-yl}imidazo[1,5-a]pyrazin-1-yl)-N-[4-(trifluoromethyl)pyridin-2-yl]benzamide] | < 10 nM
2 | COCC(=O)N1CCO[C@@H](c2nc(-c3ccc(C(=O)Nc4cc(C(F)(F)F)ccn4)cc3)c3c(N)nccn23)C1 [Example 521, 4-{8-amino-3-[(2R)-4-(methoxyacetyl)morpholin-2-yl]imidazo[1,5-a]pyrazin-1-yl}-N-[4-(trifluoromethyl)pyridin-2-yl]benzamide] | < 10 nM
3 | CCN1CCO[C@@H](c2nc(-c3ccc(C(=O)Nc4cc(C(F)(F)F)ccn4)cc3)c3c(N)ncc(Cl)n23)C1 [Example 522, 4-{8-amino-5-chloro-3-[(2R)-4-ethylmorpholin-2-yl]imidazo[1,5-a]pyrazin-1-yl}-N-[4-(trifluoromethyl)pyridin-2-yl]benzamide] | < 10 nM
4 | C[C@H](O)C(=O)N1CCO[C@@H](c2nc(-c3ccc(C(=O)Nc4cc(C(F)(F)F)ccn4)cc3)c3c(N)ncc(Cl)n23)C1 [Example 523, 4-(8-amino-5-chloro-3-{(2R)-4-[(2S)-2-hydroxypropanoyl]morpholin-2-yl}imidazo[1,5-a]pyrazin-1-yl)-N-[4-(trifluoromethyl)pyridin-2-yl]benzamide] | < 10 nM
5 | C[C@@H](O)C(=O)N1CCO[C@@H](c2nc(-c3ccc(C(=O)Nc4cc(C(F)(F)F)ccn4)cc3)c3c(N)ncc(Cl)n23)C1 [Example 524, 4-(8-amino-5-chloro-3-{(2R)-4-[(2R)-2-hydroxypropanoyl]morpholin-2-yl}imidazo[1,5-a]pyrazin-1-yl)-N-[4-(trifluoromethyl)pyridin-2-yl]benzamide] | < 10 nM
6 | Nc1ncc(Cl)n2c([C@H]3CN(C(=O)C4(O)CC4)CCO3)nc(-c3ccc(C(=O)Nc4cc(C(F)(F)F)ccn4)cc3)c12 [Example 525, 4-(8-amino-5-chloro-3-{(2R)-4-[(1-hydroxycyclopropyl)carbonyl]morpholin-2-yl}imidazo[1,5-a]pyrazin-1-yl)-N-[4-(trifluoromethyl)pyridin-2-yl]benzamide] | < 10 nM
7 | Nc1ncc(Cl)n2c([C@H]3CN(CC(F)(F)F)CCO3)nc(-c3ccc(C(=O)Nc4cc(C(F)(F)F)ccn4)cc3)c12 [Example 526, 4-{8-amino-5-chloro-3-[(2R)-4-(2,2,2-trifluoroethyl)morpholin-2-yl]imidazo[1,5-a]pyrazin-1-yl}-N-[4-(trifluoromethyl)pyridin-2-yl]benzamide] | < 10 nM
8 | CC1(C(=O)N2CCO[C@@H](c3nc(-c4ccc(C(=O)Nc5cc(C(F)(F)F)ccn5)cc4)c4c(N)ncc(C#N)n34)C2)COC1 [Example 527, 4-(8-amino-5-cyano-3-{(2R)-4-[(3-methyloxetan-3-yl)carbonyl]morpholin-2-yl}imidazo[1,5-a]pyrazin-1-yl)-N-[4-(trifluoromethyl)pyridin-2-yl]benzamide] | < 10 nM
9 | COCC(=O)N1CCO[C@@H](c2nc(-c3ccc(C(=O)Nc4cc(C(F)(F)F)ccn4)cc3)c3c(N)ncc(Cl)n23)C1 [Example 528, 4-{8-amino-5-chloro-3-[(2R)-4-(methoxyacetyl)morpholin-2-yl]imidazo[1,5-a]pyrazin-1-yl}-N-[4-(trifluoromethyl)pyridin-2-yl]benzamide] | < 10 nM
10 | COCCOCC(=O)N1CCO[C@@H](c2nc(-c3ccc(C(=O)Nc4cc(C(F)(F)F)ccn4)cc3)c3c(N)ncc(Cl)n23)C1 [Example 529, 4-(8-amino-5-chloro-3-{(2R)-4-[(2-methoxyethoxy)acetyl]morpholin-2-yl}imidazo[1,5-a]pyrazin-1-yl)-N-[4-(trifluoromethyl)pyridin-2-yl]benzamide] | < 10 nM
11 | N#CCN1CCO[C@@H](c2nc(-c3ccc(C(=O)Nc4cc(C(F)(F)F)ccn4)cc3)c3c(N)nccn23)C1 [Example 531, 4-{8-amino-3-[(2R)-4-(cyanomethyl)morpholin-2-yl]imidazo[1,5-a]pyrazin-1-yl}-N-[4-(trifluoromethyl)pyridin-2-yl]benzamide] | < 10 nM
12 | N#CCCN1CCO[C@@H](c2nc(-c3ccc(C(=O)Nc4cc(C(F)(F)F)ccn4)cc3)c3c(N)nccn23)C1 [Example 532, 4-{8-amino-3-[(2R)-4-(2-cyanoethyl)morpholin-2-yl]imidazo[1,5-a]pyrazin-1-yl}-N-[4-(trifluoromethyl)pyridin-2-yl]benzamide] | < 10 nM
13 | N#CCN1CCO[C@@H](c2nc(-c3ccc(C(=O)Nc4cc(C(F)(F)F)ccn4)cc3)c3c(N)ncc(Cl)n23)C1 [Example 533, 4-{8-amino-5-chloro-3-[(2R)-4-(cyanomethyl)morpholin-2-yl]imidazo[1,5-a]pyrazin-1-yl}-N-[4-(trifluoromethyl)pyridin-2-yl]benzamide] | < 10 nM
14 | CCN1CCO[C@H](c2nc(-c3ccc(C(=O)Nc4cc(C(F)(F)F)ccn4)cc3)c3c(N)nccn23)C1 [Example 534, 4-{8-amino-3-[(2S)-4-ethylmorpholin-2-yl]imidazo[1,5-a]pyrazin-1-yl}-N-[4-(trifluoromethyl)pyridin-2-yl]benzamide] | 10 to 100 nM
15 | Nc1ncc(Cl)n2c([C@H]3CN(CCO)CCO3)nc(-c3ccc(C(=O)Nc4cc(C(F)(F)F)ccn4)cc3)c12 [Example 535, 4-{8-amino-5-chloro-3-[(2R)-4-(2-hydroxyethyl)morpholin-2-yl]imidazo[1,5-a]pyrazin-1-yl}-N-[4-(trifluoromethyl)pyridin-2-yl]benzamide, TFA salt] | < 10 nM
16 | COCC(=O)N1CCO[C@@H](c2nc(-c3ccc(C(=O)Nc4cc(C(F)(F)F)ccn4)cc3)c3c(N)ncc(C)n23)C1 [Example 536, 4-{8-amino-3-[(2R)-4-(methoxyacetyl)morpholin-2-yl]-5-methylimidazo[1,5-a]pyrazin-1-yl}-N-[4-(trifluoromethyl)pyridin-2-yl]benzamide, TFA salt] | < 10 nM
17 | CCOCC(=O)N1CCO[C@@H](c2nc(-c3ccc(C(=O)Nc4cc(C(F)(F)F)ccn4)cc3)c3c(N)ncc(C)n23)C1 [Example 537, 4-{8-amino-3-[(2R)-4-(ethoxyacetyl)morpholin-2-yl]-5-methylimidazo[1,5-a]pyrazin-1-yl}-N-[4-(trifluoromethyl)pyridin-2-yl]benzamide, TFA salt] | < 10 nM
18 | Cc1cnc(N)c2c(-c3ccc(C(=O)Nc4cc(C(F)(F)F)ccn4)cc3)nc([C@H]3CN(C(=O)C(F)F)CCO3)n12 [Example 538, 4-{8-amino-3-[(2R)-4-(difluoroacetyl)morpholin-2-yl]-5-methylimidazo[1,5-a]pyrazin-1-yl}-N-[4-(trifluoromethyl)pyridin-2-yl]benzamide, TFA salt] | < 10 nM
19 | COCCN1CCO[C@@H](c2nc(-c3ccc(C(=O)Nc4cc(C(F)(F)F)ccn4)cc3)c3c(N)ncc(C)n23)C1 [Example 539, 4-{8-amino-3-[(2R)-4-(2-methoxyethyl)morpholin-2-yl]-5-methylimidazo[1,5-a]pyrazin-1-yl}-N-[4-(trifluoromethyl)pyridin-2-yl]benzamide, TFA salt] | < 10 nM
20 | Cc1cnc(N)c2c(-c3ccc(C(=O)Nc4cc(C(F)(F)F)ccn4)cc3)nc([C@H]3CN(CCO)CCO3)n12 [Example 540, 4-{8-amino-3-[(2R)-4-(2-hydroxyethyl)morpholin-2-yl]-5-methylimidazo[1,5-a]pyrazin-1-yl}-N-[4-(trifluoromethyl)pyridin-2-yl]benzamide, TFA salt] | < 10 nM

same assay, conditions: Table D; Assay Method C (LANCE TR-FRET), 50 pM hBTK, 25 μM ATP; read-out: IC50 BTK activity value

Row | SMILES | IC50
21 | COCC(=O)N1CCO[C@@H](c2nc(-c3ccc(C(=O)Nc4cc(C(F)(F)F)ccn4)cc3)c3c(N)ncc(Cl)n23)C1 [Example 528, 4-{8-amino-5-chloro-3-[(2R)-4-(methoxyacetyl)morpholin-2-yl]imidazo[1,5-a]pyrazin-1-yl}-N-[4-(trifluoromethyl)pyridin-2-yl]benzamide] | 0.892 nM
